# Molecular target: T1, human PAR4 (Homo sapiens, UniProt Q96RI0)
# T1 construct: expressed in transfected cells; host or cells: HEK293 PAR4 Clone 1.2A (BMS Arctic ID 383940)
# T1 sequence (Q96RI0 18-385): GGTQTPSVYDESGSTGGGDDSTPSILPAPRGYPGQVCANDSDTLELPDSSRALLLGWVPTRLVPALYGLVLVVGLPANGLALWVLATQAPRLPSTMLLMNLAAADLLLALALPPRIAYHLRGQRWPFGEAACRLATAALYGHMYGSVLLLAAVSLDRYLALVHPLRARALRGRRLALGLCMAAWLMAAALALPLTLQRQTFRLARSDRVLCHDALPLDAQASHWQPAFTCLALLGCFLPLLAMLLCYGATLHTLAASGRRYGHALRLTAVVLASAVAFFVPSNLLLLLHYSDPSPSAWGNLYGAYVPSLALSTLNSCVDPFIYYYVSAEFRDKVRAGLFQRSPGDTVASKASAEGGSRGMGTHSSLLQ
# Experiment: PAR4 FLIPR assay: antagonism of agonist-peptide-induced calcium mobilization in PAR4-expressing HEK293 cells
# Type: cell-based
# Settings: H-Ala-Phe(4-F)-[…]NH2-induced intracellular calcium mobilization, 11-point curves
row,IC50 [nM],SMILES
1,0.8,"COc1cnc2c(-c3nc4cc(F)c(O[C@@H](C)[C@@H](C)OC(=O)Nc5cnc(C(=O)N(C)C)nc5)cc4s3)cc(C)cc2n1 [Example 468, (2R,3S)-3-((5-fluoro-2-(2-methoxy-7-methylquinoxalin-5-yl)benzo[d]thiazol-6-yl)oxy)butan-2-yl (2-(dimethylcarbamoyl)pyrimidin-5-yl)carbamate]"
2,3.9,"COc1cnc2c(-c3nc4c(Cl)c(F)c(OCCOC(=O)NCc5cnn(C)c5)cc4s3)cc(C)cc2n1 [Example 399, 2-((4-chloro-5-fluoro-2-(2-methoxy-7-methylquinoxalin-5-yl)benzo[d]thiazol-6-yl)oxy)ethyl ((1-methyl-1H-pyrazol-4-yl)methyl)carbamate]"
3,180,"COc1cccc2sc(-c3cc(C)cc4nc(OC(F)F)cnc34)nc12 [Example 51, 2-(2-(difluoromethoxy)-7-methylquinoxalin-5-yl)-4-methoxybenzo[d]thiazole]"
4,1.3,"COc1cnc2c(-c3nc4c(Cl)c(F)c(O[C@@H](C)[C@@H](C)OC(=O)Nc5cnc(OC[C@@H](C)O)nc5)cc4s3)cc(Cl)cc2c1 [Example 796, (2R,3S)-3-((4-chloro-2-(6-chloro-3-methoxyquinolin-8-yl)-5-fluorobenzo[d]thiazol-6-yl)oxy)butan-2-yl (2-((R)-2-hydroxypropoxy)pyrimidin-5-yl)carbamate]"
5,8,"CCOc1cc(C(O)C(C)(C)C)c2nc(-c3cc(C)cc4nc(OC)cnc34)sc2c1 (stereo not shown) [Example 640, 1-(6-ethoxy-2-(2-methoxy-7-methylquinoxalin-5-yl)benzo[d]thiazol-4-yl)-2,2-dimethylpropan-1-ol]"
6,1.2,"COc1cnc2c(-c3nc4cc(F)c(OC[C@@H](C)OC(=O)Nc5cnc6[nH]ccc6c5)cc4s3)cc(C)cc2n1 [Example 354, (R)-1-((5-fluoro-2-(2-methoxy-7-methylquinoxalin-5-yl)benzo[d]thiazol-6-yl)oxy)propan-2-yl 1H-pyrrolo[2,3-b]pyridin-5-ylcarbamate]"
7,100,"COC(=O)N1CCc2nc(-c3cc(C)cc4nc(OC(F)F)cnc34)sc2C1 [Example 62, methyl 2-(2-(difluoromethoxy)-7-methylquinoxalin-5-yl)-6,7-dihydrothiazolo[5,4-c]pyridine-5(4H)-carboxylate]"
8,42,"COc1cnc2c(-c3nc4c(Cl)c(F)c(OCC(=O)N5CCOCC5)cc4s3)cc(C)cc2n1 [Example 324, 2-((4-chloro-5-fluoro-2-(2-methoxy-7-methylquinoxalin-5-yl)benzo[d]thiazol-6-yl)oxy)-1-morpholinoethanone]"
9,8.1,"Cc1cc(-c2nc3c(Cl)cccc3s2)c2ncc(OC(F)F)nc2c1 [Example 8, 4-chloro-2-(2-(difluoromethoxy)-7-methylquinoxalin-5-yl)benzo[d]thiazole]"
10,14,"COc1cnc2c(-c3nc4cc(F)c(OC[C@@H](C)OC(=O)Nc5ccc(C(=O)N6CCOC[C@H]6CO)nc5)cc4s3)cc(C)cc2n1 [Example 488, (R)-1-((5-fluoro-2-(2-methoxy-7-methylquinoxalin-5-yl)benzo[d]thiazol-6-yl)oxy)propan-2-yl (6-((R)-3-(hydroxymethyl)morpholine-4-carbonyl)pyridin-3-yl)carbamate]"
11,1.2,"COc1cnc2c(-c3nc4cc(F)c(OC[C@@H](C)OC(=O)Nc5cnc(C)nc5)cc4s3)cc(C#N)cc2n1 [Example 819, (R)-1-((2-(7-cyano-2-methoxyquinoxalin-5-yl)-5-fluorobenzo[d]thiazol-6-yl)oxy)propan-2-yl (2-methylpyrimidin-5-yl)carbamate]"
12,3.1,"COc1cnc2c(-c3nc4cc(F)c(O[C@@H](C)[C@@H](C)OC(=O)Nc5ccc(C(=O)NCCO)nc5)cc4s3)cc(C)cc2n1 (stereo in doubt) [Example 392, (2R,3S)-3-((5-fluoro-2-(2-methoxy-7-methylquinoxalin-5-yl)benzo[d]thiazol-6-yl)oxy)butan-2-yl (6-((2-hydroxyethyl)carbamoyl)pyridin-3-yl)carbamate]"
13,38,"COC(=O)c1cc(OC)cc2sc(-c3cc(C)cc4nc(OC)cnc34)nc12 [Example 152, methyl 6-methoxy-2-(2-methoxy-7-methylquinoxalin-5-yl)benzo[d]thiazole-4-carboxylate]"
14,3,"COc1cnc2c(-c3nc4cc(F)c(OC[C@@H](C)OC(=O)Nc5ccc(C(=O)N6CCO[C@H](CO)C6)nc5)cc4s3)cc(C)cc2n1 [Example 477, (R)-1-((5-fluoro-2-(2-methoxy-7-methylquinoxalin-5-yl)benzo[d]thiazol-6-yl)oxy)propan-2-yl (6-((S)-2-(hydroxymethyl)morpholine-4-carbonyl)pyridin-3-yl)carbamate]"
15,29,"COc1cnc2c(-c3nc4c(Cl)c(F)c(OCCOC(=O)NCC(F)(F)F)cc4s3)cc(C)cc2n1 [Example 334, 2((4-chloro-5-fluoro-2-(2-methoxy-7-methylquinoxalin-5-yl)benzo[d]thiazol-6-yl)oxy)ethyl (2,2,2-trifluoroethyl)carbamate]"
16,1.7,"COc1cnc2c(-c3nc4cc(F)c(O[C@@H](C)[C@@H](C)OC(=O)Nc5ccc(CC(C)(C)O)nc5)nc4s3)cc(C)cc2n1 [Example 718, (2R,3S)-3-((6-fluoro-2-(2-methoxy-7-methylquinoxalin-5-yl)thiazolo[5,4-b]pyridin-5-yl)oxy)butan-2-yl (6-(2-hydroxy-2-methylpropyl)pyridin-3-yl)carbamate]"
17,1.6,"COC(=O)c1ccc(NC(=O)O[C@H](C)[C@H](C)Oc2cc3sc(-c4cc(Cl)cc5nc(OC)cnc45)nc3cc2F)cn1 [Example 830, methyl 5-(((((2R,3S)-3-((2-(7-chloro-2-methoxyquinoxalin-5-yl)-5-fluorobenzo[d]thiazol-6-yl)oxy)butan-2-yl)oxy)carbonyl)amino)picolinate]"
18,160,"Cc1cc(-c2nc3ccc(OCc4cscn4)cc3s2)c2ncc(OC(F)F)nc2c1 [Example 71, 2-(2-(difluoromethoxy)-7-methylquinoxalin-5-yl)-6-(thiazol-4-ylmethoxy) benzo[d]thiazole]"
19,54,"COc1cnc2c(-c3nc4cnccc4s3)cc(C)cc2n1 [Example 809, 2-(2-methoxy-7-methylquinoxalin-5-yl)thiazolo[4,5-c]pyridine]"
20,2,"COc1cnc2c(-c3nc4c(Cl)c(F)c(OCCOC(=O)Nc5ccc(-n6cnc(C)n6)nc5)cc4s3)cc(C)cc2n1 [Example 338, 2((4-chloro-5-fluoro-2-(2-methoxy-7-methylquinoxalin-5-yl)benzo[d]thiazol-6-yl)oxy)ethyl (6-(3-methyl-1H-1,2,4-triazol-1-yl)pyridin-3-yl)carbamate]"
21,0.4,"COc1cnc2c(-c3nc4cc(F)c(O[C@@H](C)[C@@H](C)OC(=O)Nc5ccnc(C(=O)NC[C@@H](C)O)c5)cc4s3)cc(C)cc2n1 [Example 452, (2R,3S)-3-((5-fluoro-2-(2-methoxy-7-methylquinoxalin-5-yl)benzo[d]thiazol-6-yl)oxy)butan-2-yl (2-(((R)-2-hydroxypropyl)carbamoyl)pyridin-4-yl)carbamate]"
22,0.4,"[2H]C(O)(c1cc(OC)cc2sc(-c3cc(C)cc4nc(COC)cnc34)nc12)C(C)(C)C (single isomer, unassigned) [Example 169, 1-(6-methoxy-2-(2-(methoxymethyl)-7-methylquinoxalin-5-yl)benzo[d]thiazol-4-yl)-2,2-dimethylpropan-1-ol-1-d1]"

# Reference: patent publication US12060347B2 (BRISTOL-MYERS SQUIBB COMPANY, priority 2016, dated 2024)
